From patent publication US20250176547A1, “AGRICULTURE COMPOSITION” (Nippon Kayaku Kabushiki Kaisha, priority 2022, published 2025)

Assays:
Format in all cases: in vivo
kidney bean leaves = assay: Phytotoxicity evaluation of kidney bean leaves after Test Example 2
Experimental: (§1) Kidney bean leaves were cut into squares that measured 2.5 cm on one side, and the cut leaves were placed on absorbent cotton moistened with water. Ten first instar larvae of Thrips palmi were released thereon. 30 mL of the agricultural composition diluted 500 times with water was sprayed on the kidney bean leaves using a hand spray. After air drying, the larvae were kept in a constant temperature chamber at 25° C. One day after the treatment, life and death was observed, and the death rate was calculated. In addition, the state of the kidney bean leaves after the test was observed, and the phytotoxicity was also evaluated.
Evaluation Criteria for Phytotoxicity
• −: No change on the leaf surface • ±: Slight damage is recognized on the leaf surface • +: Damage is recognized on part of the leaf surface • ++: Damage is recognized on the entire surface of the leaf surface

Thrips palmi = assay: Biological Test Example 2: test for controlling Thrips palmi (leaf spray); settings: first instar larvae; composition diluted 500 times with water, 30 mL sprayed on kidney bean leaves, 25° C., one day after the treatment
Experimental: as §1

Tetranychus urticae = assay: Biological Test Example 1: test for controlling Tetranychus urticae (leaf spray); settings: composition diluted 1000 times with water, 30 mL sprayed on kidney bean leaves, 25° C., two days after the treatment
Experimental: Kidney bean leaves were cut into squares that measured 2.5 cm on one side, and the cut leaves were placed on absorbent cotton moistened with water. Ten Tetranychus urticae […] were released thereon. 30 mL of each agricultural composition diluted 1000 times with water was sprayed on the kidney bean leaves by using a hand spray. After air drying, the bean leaves were transferred into a plastic cup and stored in a constant temperature chamber at 25° C. Two days after the treatment, the life and death of the imagoes was observed, and the death rate was calculated.

Compound | Test Example 2 Leaf shape phytotoxicity (kidney bean leaves; in vivo) | Test Example 2 Thrip larvae (death rate) (Thrips palmi) [%] | Test Example 1 Spider mite imagoes (death rate) (Tetranychus urticae) [%] | Test Example 2 Leaf shape phytotoxicity (kidney bean leaves; kidney bean leaves after the test, composition diluted 500 times with water)
CCCCCCCCCCCCN1CCCC1=O [Comparative Example 8, N-lauryl-2-pyrrolidone] | +++ | 100 | 100 | 
Diglycerin monocaprylic acid ester [Comparative Example 1] | − | 20 | 60 | 
N,N-dimethyl fatty acid (C8-10) amide [Comparative Example 4] | ++ |  |  | 
N,N-dimethyl fatty acid (C12-14) amide [Comparative Example 6] | +++ |  |  | 
Propylene glycol monolauric acid ester [Comparative Example 3] |  | 50 | 100 | −
Sorbitan monolauric acid ester [Comparative Example 2] | − | 20 | 0 | 
